{
  "source": "EPA's ToxRefDB 2",
  "key": {"[1]": {"system": "dog", "details": "Subchronic oral toxicity in nonrodent, beagle, Feed, dose end: 90 day, group: systemic"}, "[2]": {"system": "rat", "details": "Subchronic oral toxicity in rodents, sprague dawley, Feed, dose end: 90 day, group: systemic"}, "[3]": {"system": "dog", "details": "Chronic toxicity, beagle, Oral, Feed, dose end: 52 week, group: systemic"}, "[4]": {"system": "mouse", "details": "Subchronic oral toxicity in rodents, other, Feed, dose end: 90 day, group: systemic"}, "[5]": {"system": "mouse", "details": "Combined chronic toxicity/carcinogenicity; Oral; Feed; dose end: 104 week; group: systemic; systemic / in life observation / water consumption / water consumption + systemic / pathology gross / full gross necropsy / abdominal cavity…"}, "[6]": {"system": "rat", "details": "Combined chronic toxicity/carcinogenicity; sprague dawley; Oral; Feed; dose end: 104 week; group: systemic; systemic / clinical chemistry / alanine aminotransferase (alt/sgpt) / alanine aminotransferase (alt/sgpt) + systemic / clinical chemistry / …"}, "[7]": {"system": "rat", "details": "Prenatal developmental toxicity study, sprague dawley, Oral, Gavage/Intubation, dose end: 19 GD"}, "[8]": {"system": "rat", "details": "Multigenerational reproductive toxicity study, Charles River CD, Oral, Feed, dose end: 2 generation"}, "[9]": {"system": "rat", "details": "Subchronic oral toxicity in rodents, sprague dawley, Feed, dose end: 13 week, group: systemic"}, "[10]": {"system": "mouse", "details": "Subchronic oral toxicity in rodents, cd1, Feed, dose end: 13 week, group: systemic"}, "[11]": {"system": "dog", "details": "Chronic toxicity, beagle, Oral, Feed, dose end: 52 week, group: systemic", "remark": "listed apart in the source"}, "[12]": {"system": "mouse", "details": "Carcinogenicity; cd1; Oral; Feed; dose end: 78 week; group: systemic; systemic / organ weight / liver / nos + systemic / organ weight / liver / relative to body weight + systemic / pathology microscopic / liver…"}, "[13]": {"details": "systemic / clinical chemistry / alanine aminotransferase (alt/sgpt) / alanine aminotransferase (alt/sgpt) + systemic / clinical chemistry / …"}, "[14]": {"details": "systemic / organ weight / ovary / absolute + systemic / organ weight / ovary / relative to body weight"}, "[15]": {"details": "systemic / clinical chemistry / cholesterol / cholesterol + systemic / organ weight / kidney / absolute + systemic / organ weight / kidney…"}, "[16]": {"details": "systemic / organ weight / liver / absolute + systemic / organ weight / liver / relative to body weight + systemic / pathology microscopic / …"}, "[17]": {"details": "systemic / pathology microscopic / liver / hypertrophy"}, "[18]": {"details": "group: developmental, developmental / developmental malformation / bone / bent + developmental / developmental malformation / bone / incomplete ossification + …"}, "[19]": {"details": "group: maternal, systemic / in life observation / body weight / body weight gain + systemic / in life observation / clinical signs / lethargy + systemic / in…"}, "[20]": {"details": "group: offspring, systemic / in life observation / body weight / offspring (pup) weight + systemic / organ weight / liver / absolute + systemic / organ weight…"}, "[21]": {"details": "group: parental, systemic / organ weight / spleen / relative to body weight"}, "[22]": {"details": "group: reproductive, reproductive / reproductive performance / fertility / fertility"}, "[23]": {"details": "group: reproductive, reproductive / reproductive performance / fertility / fertility + reproductive / offspring survival early / birth index / live birth index"}, "[24]": {"details": "systemic / hematology / erythrocyte (rbc) count differential / erythrocyte (rbc)"}, "[25]": {"details": "systemic / pathology microscopic / liver / [other] + systemic / pathology microscopic / liver / hematopoietic cell proliferation + systemic…"}, "[26]": {"details": "systemic / organ weight / adrenal gland / absolute + systemic / organ weight / heart / absolute + systemic / organ weight / spleen / …"}},
  "data": [
    {"smiles": "COC(=O)c1ccccc1CS(=O)(=O)NC(=O)Nc1nc(OC)cc(OC)n1", "note": "[Bensulfuron-methyl]", "values": [
      {"measurement": "LOAEL", "setting": "[1]; [13]", "value": 340, "unit": "mg/kg/day"},
      {"measurement": "NOAEL", "setting": "[1]; [13]", "value": 32.1, "unit": "mg/kg/day"},
      {"measurement": "LEL", "setting": "[1]; [14]", "value": 3.5, "unit": "mg/kg/day"},
      {"measurement": "NEL", "setting": "[1]; [14]", "value": "< 3.5", "unit": "mg/kg/day"},
      {"measurement": "LOAEL", "setting": "[2]; [15]", "value": 474, "unit": "mg/kg/day"},
      {"measurement": "NOAEL", "setting": "[2]; [15]", "value": 93, "unit": "mg/kg/day"},
      {"measurement": "LEL", "setting": "[2]; [16]", "value": 7.5, "unit": "mg/kg/day"},
      {"measurement": "NEL", "setting": "[2]; [16]", "value": "< 7.5", "unit": "mg/kg/day"},
      {"measurement": "LOAEL", "setting": "[3]; [13]", "value": 223, "unit": "mg/kg/day"},
      {"measurement": "NEL", "setting": "[3]; [13]", "value": 1.4, "unit": "mg/kg/day"},
      {"measurement": "NOAEL", "setting": "[3]; [13]", "value": 19.9, "unit": "mg/kg/day"},
      {"measurement": "LEL", "setting": "[3]; systemic / organ weight / spleen / absolute + systemic / organ weight / spleen / relative to body weight", "value": 19.9, "unit": "mg/kg/day"},
      {"measurement": "LEL", "setting": "[4]; [17]", "value": 38.9, "unit": "mg/kg/day"},
      {"measurement": "LOAEL", "setting": "[4]; [17]", "value": 387, "unit": "mg/kg/day"},
      {"measurement": "NEL", "setting": "[4]; [17]", "value": "< 38.9", "unit": "mg/kg/day"},
      {"measurement": "NOAEL", "setting": "[4]; systemic / pathology microscopic / liver / hypertrophy + systemic / organ weight / liver / absolute + systemic / organ weight / liver / …", "value": 132, "unit": "mg/kg/day"},
      {"measurement": "LEL", "setting": "[5]", "value": 455, "unit": "mg/kg/day"},
      {"measurement": "LOAEL", "setting": "[5]", "value": 455, "unit": "mg/kg/day"},
      {"measurement": "NEL", "setting": "[5]", "value": 226, "unit": "mg/kg/day"},
      {"measurement": "NOAEL", "setting": "[5]", "value": 226, "unit": "mg/kg/day"}
    ]},
    {"smiles": "CCOC(=O)C(C)OC(=O)c1cc(Oc2ccc(C(F)(F)F)cc2Cl)ccc1[N+](=O)[O-]", "note": "(stereo not given) [Lactofen]", "values": [
      {"measurement": "LEL", "setting": "[6]", "value": 19, "unit": "mg/kg/day"},
      {"measurement": "LOAEL", "setting": "[6]", "value": 19, "unit": "mg/kg/day"},
      {"measurement": "NEL", "setting": "[6]", "value": 2, "unit": "mg/kg/day"},
      {"measurement": "NOAEL", "setting": "[6]", "value": 2, "unit": "mg/kg/day"},
      {"measurement": "LEL", "setting": "[7]; [18]", "value": 150, "unit": "mg/kg/day"},
      {"measurement": "LOAEL", "setting": "[7]; [18]", "value": 150, "unit": "mg/kg/day"},
      {"measurement": "NEL", "setting": "[7]; [18]", "value": 50, "unit": "mg/kg/day"},
      {"measurement": "NOAEL", "setting": "[7]; [18]", "value": 50, "unit": "mg/kg/day"},
      {"measurement": "LEL", "setting": "[7]; [19]", "value": 150, "unit": "mg/kg/day"},
      {"measurement": "LOAEL", "setting": "[7]; [19]", "value": 150, "unit": "mg/kg/day"},
      {"measurement": "NEL", "setting": "[7]; [19]", "value": 50, "unit": "mg/kg/day"},
      {"measurement": "NOAEL", "setting": "[7]; [19]", "value": 50, "unit": "mg/kg/day"},
      {"measurement": "LEL", "setting": "[8]; [20]", "value": 26.7, "unit": "mg/kg/day"},
      {"measurement": "LOAEL", "setting": "[8]; [20]", "value": 26.7, "unit": "mg/kg/day"},
      {"measurement": "NEL", "setting": "[8]; [20]", "value": 2.7, "unit": "mg/kg/day"},
      {"measurement": "NOAEL", "setting": "[8]; [20]", "value": 2.7, "unit": "mg/kg/day"},
      {"measurement": "LOAEL", "setting": "[8]; group: parental, systemic / in life observation / mortality / mortality", "value": 32.9, "unit": "mg/kg/day"},
      {"measurement": "NOAEL", "setting": "[8]; group: parental, systemic / in life observation / mortality / mortality + systemic / in life observation / body weight / body weight + systemic / organ …", "value": 3.3, "unit": "mg/kg/day"},
      {"measurement": "LEL", "setting": "[8]; [21]", "value": 3.3, "unit": "mg/kg/day"},
      {"measurement": "NEL", "setting": "[8]; [21]", "value": "< 3.3", "unit": "mg/kg/day"},
      {"measurement": "LEL", "setting": "[8]; [22]", "value": 26.7, "unit": "mg/kg/day"},
      {"measurement": "LOAEL", "setting": "[8]; [22]", "value": 26.7, "unit": "mg/kg/day"},
      {"measurement": "NEL", "setting": "[8]; [23]", "value": 2.7, "unit": "mg/kg/day"},
      {"measurement": "NOAEL", "setting": "[8]; [23]", "value": 2.7, "unit": "mg/kg/day"},
      {"measurement": "LOAEL", "setting": "[9]; [13]", "value": 73.7, "unit": "mg/kg/day"},
      {"measurement": "NOAEL", "setting": "[9]; [13]", "value": 14.1, "unit": "mg/kg/day"},
      {"measurement": "LEL", "setting": "[9]; [24]", "value": 2.9, "unit": "mg/kg/day"},
      {"measurement": "NEL", "setting": "[9]; [24]", "value": "< 2.9", "unit": "mg/kg/day"},
      {"measurement": "LOAEL", "setting": "[10]; [13]", "value": 143, "unit": "mg/kg/day"},
      {"measurement": "NOAEL", "setting": "[10]; [13]", "value": 28.6, "unit": "mg/kg/day"},
      {"measurement": "LEL", "setting": "[10]; [25]", "value": 5.7, "unit": "mg/kg/day"},
      {"measurement": "NEL", "setting": "[10]; [25]", "value": "< 5.7", "unit": "mg/kg/day"},
      {"measurement": "LEL", "setting": "[11]; [26]", "value": 0.79, "unit": "mg/kg/day"},
      {"measurement": "NEL", "setting": "[11]; [26]", "value": "< 0.79", "unit": "mg/kg/day"},
      {"measurement": "NOAEL", "setting": "[11]; [26]", "value": 0.79, "unit": "mg/kg/day"},
      {"measurement": "LOAEL", "setting": "[11]; systemic / organ weight / adrenal gland / absolute + systemic / organ weight / thyroid gland / absolute", "value": 3.96, "unit": "mg/kg/day"},
      {"measurement": "LEL", "setting": "[12]", "value": 1.4, "unit": "mg/kg/day"},
      {"measurement": "LOAEL", "setting": "[12]", "value": 1.4, "unit": "mg/kg/day"},
      {"measurement": "NEL", "setting": "[12]", "value": "< 1.4", "unit": "mg/kg/day"},
      {"measurement": "NOAEL", "setting": "[12]", "value": "< 1.4", "unit": "mg/kg/day"}
    ]}
  ]
}
